Test results published in article PMC7797062, “Structural basis for guide RNA trimming by RNase D ribonuclease in Trypanosoma brucei” (Nucleic Acids Research, 2020).

Assays:
TbRND (RND-WT) = target: T1, TbRND (RND-WT) (Trypanosoma brucei, UniProt Q38DE2); assay: X-ray crystal structure (soak of apo crystals); format: binding; settings: 10 mM NMP and 10 mM MnCl2 soak, 10 min
T1 construct: gene Tb09.211.3670; residues 41-390 (N-terminal 40 residues with mitochondrial localization signal removed); codon-optimized gene; E. coli BL21(DE3); His-Sumo tag cut with Ulp1; monomer per asymmetric unit
T1 sequence (Q38DE2 41-390): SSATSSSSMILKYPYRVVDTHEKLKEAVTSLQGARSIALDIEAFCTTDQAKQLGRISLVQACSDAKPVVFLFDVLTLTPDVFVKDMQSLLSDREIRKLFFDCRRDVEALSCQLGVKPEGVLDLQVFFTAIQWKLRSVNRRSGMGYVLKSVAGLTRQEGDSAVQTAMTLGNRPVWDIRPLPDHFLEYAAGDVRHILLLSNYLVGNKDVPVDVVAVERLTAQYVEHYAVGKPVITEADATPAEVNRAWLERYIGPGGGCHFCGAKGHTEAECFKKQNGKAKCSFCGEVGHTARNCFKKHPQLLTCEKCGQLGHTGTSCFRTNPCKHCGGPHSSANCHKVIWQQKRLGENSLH

RND-Exo = target: T2, RND-Exo (Trypanosoma brucei, UniProt Q38DE2 41-296); assay: EMSA; no obvious shift up to 20 uM protein, 0.2 uM RNA; EMSA: 20 mM Tris-HCl pH 8.0, 200 mM NaCl, 2 mM DTT, 0.2 uM FAM-RNA, 1 h on ice; 6% native PAGE in 0.5x TBE at 4 C; settings: protein: recombinant; tags: His-SUMO removed by Ulp1; label: 5'-FAM; single strand
T2 sequence: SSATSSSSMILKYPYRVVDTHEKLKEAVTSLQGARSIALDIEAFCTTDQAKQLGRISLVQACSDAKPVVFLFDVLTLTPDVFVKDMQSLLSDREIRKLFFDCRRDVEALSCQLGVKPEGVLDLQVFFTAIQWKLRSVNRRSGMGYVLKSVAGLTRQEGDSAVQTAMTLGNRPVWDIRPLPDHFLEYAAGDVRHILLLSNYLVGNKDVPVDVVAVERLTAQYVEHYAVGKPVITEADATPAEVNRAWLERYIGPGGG

TbRND ΔZF_3-4 = TbRND ΔZF_3-4 (Trypanosoma brucei, UniProt Q38DE2 41-341); assay: X-ray crystallography (1.77 A); Ca2+ (10 mM CaCl2), Zn2+; EMSA: 20 mM Tris-HCl pH 8.0, 200 mM NaCl, 2 mM DTT, 0.2 uM FAM-RNA, 1 h on ice; 6% native PAGE in 0.5x TBE at 4 C; settings: protein: recombinant; tags: His-SUMO removed by Ulp1; single strand

Molecule: Nc1ncnc2c1ncn2[C@@H]1O[C@H](COP(=O)(O)O)[C@@H](O)[C@H]1O [AMP]
- X-ray crystal structure (soak of apo crystals) (TbRND (RND-WT); site: R0 of Exo domain (none in ZF1 groove), b55 says ATP soaked crystals): one AMP was captured at the R0 site in the A-form structure

Molecule: Nc1ccn([C@@H]2O[C@H](COP(=O)(O)O)[C@@H](O)[C@H]2O)c(=O)n1 [CMP]
- X-ray crystal structure (soak of apo crystals) (TbRND (RND-WT); site: ZF1 groove, also R2 site of Exo domain): one CMP nucleotide was bound in ZF1 groove

Molecule: Nc1nc2c(ncn2[C@@H]2O[C@H](COP(=O)(O)O)[C@@H](O)[C@H]2O)c(=O)[nH]1 [GMP]
- X-ray crystal structure (soak of apo crystals) (TbRND (RND-WT); sites: R0 and R2 of Exo domain, ZF1 groove, ZF2 groove (Mn2+-dependent), 2.25 A): we observed two GMP molecules in the G-form structure

Molecule: O=c1ccn([C@@H]2O[C@H](COP(=O)(O)O)[C@@H](O)[C@H]2O)c(=O)[nH]1 [UMP]
- X-ray crystal structure (soak of apo crystals) (TbRND (RND-WT); site: ZF1 groove): one well-defined UMP molecule was captured in the groove of ZF1

Molecule: AACUUGUUUUUUUU (ssRNA) [RNA1]
- binding result (RND-Exo): no binding

Molecule: UUUUUUUUUUUU (ssRNA) [RNA-12U]
- binding result (TbRND ΔZF_3-4): binds
